Results taken from patent publication US12024707B2, “Methods and compositions for modulating lncRNAs and methods of treatment based on lncRNA expression” (Washington University, priority 2020, dated 2024).

Columns and labels:
[1] = test system: RAMS11-overexpressing (RAMS11) HT29 cells; assay: Tail vein lung metastasis model, 5FU treatment, BLI imaging, RAMS11-overexpressing cells; type: in vivo, NOD scid mice; details: RAMS11 cell-injected mice, 50 mg/kg 5FU
Protocol: (§1) To determine if cells with high RAMS11 expression promote resistance to fluorouracil (5FU) treatment, 9-week-old female NOD scid mice were injected with 1 e6 wildtype (WT) or RAMS11-overexpressing (RAMS11) HT29 cells (with GFP-luciferase incorporated) via the tail vein, a common model of lung metastasis^13. Seventy-two hours after tumor cell injection mice were subcutaneously treated with vehicle (PBS) or 50 mg/kg 5FU and imaged weekly. […] Further, high expression of RAMS11 promoted resistance to treatment with 5FU.

[2] = test system: SW620 cells with silenced RAMS11; assay: Drug IC50 / cell viability assays in cells with transient silencing of RAMS11
Protocol: (§3) The FDA-approved anticancer panel included multiple classes of drugs such as kinase inhibitors, alkylating agents, antineoplastic antibiotics, anthracycline antibiotics, and antineoplastic agents (topoisomerase inhibitors). The HT29 RAMS11 overexpressing and control cells were treated for 72 h to assess cellular viability upon drug treatment (FIG. 14a and TABLE 3). […] Due to 5-FU commonly used to treat mCRC, we further determined if RAMS11 expression altered drug sensitivity in treated cells.
(§4) Drugs were diluted in DMSO to 1 mM and the well assignments were rearranged so drugs were confined to the inner 60 wells of 96-well plates. […] The next day serial diluted drug was added to pre-seeded plates in media containing 1% DMSO vehicle, using a Robbins Hydra 96 micro dispenser. Two 96-well plates of cells were used as vehicle controls. The plates were incubated for 3 days. Percent viability was scored by incubating cells for 3 h with resazurin sodium (0.023 mg/mL, Sigma R7017). The reaction was stopped by the addition of SDS (1% final concentration). Fluorescence Ex/Em 540/590 was read in a Biotek Synergy H1 plate reader (Winooski, VT). The fluorescence values for the vehicle plates were averaged and percent viability was determined by the formula: Percent viability=(average vehicle−value)/(average vehicle−average resazurin in media blank)×100. […] Assays were repeated more than three times.

[3] = test system: HT29 RAMS11 overexpressing cells; assay: High-throughput viability assay (resazurin), 119 FDA-approved anticancer drugs, RAMS11 overexpressing cells (Clone1, Clone2); details: 72 h, vs empty vector control
Protocol: as §3, §4

wildtype (WT) HT29 cells = assay: Tail vein lung metastasis model, 5FU treatment, BLI imaging, wildtype cells; type: in vivo, NOD scid mice; details: WT cell-injected mice, 50 mg/kg 5FU, Week 3
Protocol: as §1

[4] = test system: LoVo RAMS11 CRISPR KO cells; assay: Individual drug IC50 / cell viability assays in RAMS11 CRISPR KO cells; type: cell-based
Protocol: The NIH approved oncology library of 119 drugs (AOD6 plate 4825-1 and AOD6 plate 4826) was received from the NIH National Cancer Institute DTP Developmental Therapeutics Program. Drugs were diluted in DMSO to 1 mM and the well assignments were rearranged so drugs were confined to the inner 60 wells of 96-well plates. HT29 RAMS11 overexpressing Clone1 and Clone2 cell lines were seeded at 5000 cells per well in a 96-well plate. The next day serial diluted drug was added to pre-seeded plates in media containing 1% DMSO vehicle, using a Robbins Hydra 96 micro dispenser. Two 96-well plates of cells were used as vehicle controls. The plates were incubated for 3 days. Percent viability was scored by incubating cells for 3 h with resazurin sodium (0.023 mg/mL, Sigma R7017). The reaction was stopped by the addition of SDS (1% final concentration). Fluorescence Ex/Em 540/590 was read in a Biotek Synergy H1 plate reader (Winooski, VT). The fluorescence values for the vehicle plates were averaged and percent viability was determined by the formula: Percent viability=[…]/(average vehicle−average resazurin in media blank)×100. We removed drugs that were undetectable, or out of range, by resazurin assay, leaving 118 drugs to assess in the study (TABLE 3). Values with more than a 1.5-fold change in both RAMS11 Clone1 and Clone2 overexpressing cell lines were used to determine significance. Individual drug IC50 assays were done in a similar manner as described above with CRISPR KO cells. Assays were repeated more than three times.

RAMS11 = RAMS11 knockdown by ASOs, qPCR; type: cell-based; details: in vivo optimized LNA GapmeR ASOs
Description: (§2) Exiqon's locked nucleic acid (LNA) GapmeRs antisense oligonucleotides (ASOs) were used. They contain a central stretch (gap) of monomers flanked by blocks of LNA modified nucleotides that (i) increase the target affinity and nuclease resistance of the oligo and (ii) the gap activates RNase H cleavage of the target RNA upon binding. The LNATM oligonucleotides can be designed for any region of the target RNA sequence. In addition, the design flexibility afforded by LNATM means that it is possible to design multiple LNATM antisense oligonucleotides to the same target sequence, which serve as useful experimental controls. […] NO: 41) and […] NO: 42). Total RNA was isolated for each CRC cell line using Takara Bio NucleoSpin RNA (Takara, Mountain View, CA). Total RNA was then transcribed to cDNA with SuperScript Ill First strand cDNA system (Invitrogen) and quantified using Fast Sybr Green Master Mix (Invitrogen) as per the manufacturer's protocol. Primer sequences are available in TABLE 5.

LoVo cells = type: cell-based
Description: as §2, with “42).” for “42). Total RNA was isolated for each CRC cell line using Takara Bio NucleoSpin RNA (Takara, Mountain View, CA). Total RNA was then transcribed to cDNA with SuperScript Ill First strand cDNA system (Invitrogen) and quantified using Fast Sybr Green Master Mix (Invitrogen) as per the manufacturer's protocol. Primer sequences are available in TABLE 5.”

With O=c1[nH]cc(F)c(=O)[nH]1 [5-FU, fluorouracil, reference compound] the “change between vehicle and 5FU-treated mice, in vivo and ex vivo lung BLI” value [1] was “no significant change”, the “increase in drug sensitivity” value ([2]; SW620, RAMS11 siRNA1 relative to scrambled control) was over 1.53 fold and the “increase in drug sensitivity” value ([2]; SW620, RAMS11 siRNA2 relative to scrambled control) was over 1.59 fold. The “Viability Fold Change” value ([3]; OE1 (RAMS11 overexpression clone 1), 0.1 uM drug) was 0.9856, the “Viability Fold Change” value ([3]; OE1 (RAMS11 overexpression clone 1), 1 uM drug) was 0.9553 and the “Viability Fold Change” value ([3]; OE1 (RAMS11 overexpression clone 1), 10 uM drug) was 0.9891. The “Viability Fold Change” value ([3]; OE2 (RAMS11 overexpression clone 2), 0.1 uM drug) was 0.9406, the “Viability Fold Change” value ([3]; OE2 (RAMS11 overexpression clone 2), 1 uM drug) was 0.9417 and the “Viability Fold Change” value ([3]; OE2 (RAMS11 overexpression clone 2), 10 uM drug) was 1.021. The “decrease in ex vivo BLI of lung tissue” value (wildtype (WT) HT29 cells) was 55%, the “increase in drug sensitivity” value ([4]; LoVo RAMS11 CRISPR1 compared with wild-type cells) was 1.7 fold and the “increase in drug sensitivity” value ([4]; LoVo RAMS11 CRISPR2 compared with wild-type cells) was 5.8 fold.

“ASO #1: LNA GapmeR antisense oligonucleotide against RAMS11: CAACTTCCAGCAAGAT (SEQ ID NO: 41) (LNA gapmer, pattern not given here)” was tested, and the RAMS11 knockdown (RAMS11) was “most potent” and the cell viability (LoVo cells) was “do not alter cell viability”.

In the case of “ASO #2: LNA GapmeR antisense oligonucleotide against RAMS11: AGAACTGCTAAAAGTG (SEQ ID NO: 42) (LNA gapmer, pattern not given here)”, the RAMS11 knockdown (RAMS11) was “most potent” and the cell viability (LoVo cells) was “do not alter cell viability”.
